From patent US12466806B2, “2-substituted imidazolidine derivative containing aryl bipyridyloxy structure and preparation method and use thereof” (NANTONG UNIVERSITY, priority 2020, dated 2025)

These molecules were tested on Mythimna separata (assay: Screening of insecticidal activity against Mythimna separata, leaf soaking method (IRAC)). Conditions: concentration 500 μg/mL; 3rd instar larvae on soaked corn leaves; investigated after 48 h; 24-27° C.
Type: in vivo
Method: Screening of Insecticidal Activity of Compounds Against Mythimna separate
Adopting the leaf soaking method proposed by the International Resistance Action Committee (IRAC): the test target is Mythimna separata, e.g. the appropriate amount of corn leaves was fully infiltrated in the prepared liquid and then dried naturally in the shade, and placed in a petri dish with a filter paper. The 3rd instar larvas of Mythimna separata were added 10 heads per dish, cultured in the observation room at 24-27° C., and the results were investigated after 48 h. Using a brush to touch the body of the Mythimna separata, if there is no response, it is regarded as a dead insect. The test concentration is 500 μg/mL (the other concentrations of the drug solution can be obtained by diluting the drug solution with the concentration of 500 μg/mL).

| Compound | death rate % Mythimna separata [%] |
| --- | --- |
| O=[N+]([O-])/N=C1\NCCN1Cc1ccc(Oc2cccc(F)c2F)nc1 [I f] | 100 |
| O=[N+]([O-])/N=C1\NCCN1Cc1ccc(Oc2ccc(Br)cc2)nc1 [I c] | 80 |
| O=[N+]([O-])/N=C1\NCCN1Cc1ccc(Oc2ccc(Cl)cc2Cl)nc1 [I e] | 100 |
| O=[N+]([O-])/N=C1\NCCN1Cc1ccc(Oc2ccc(F)cc2)nc1 [I a] | 100 |
| O=[N+]([O-])/N=C1\NCCN1Cc1ccc(Oc2ccccc2)nc1 [I d] | 100 |
| O=[N+]([O-])/N=C1\NCCN1Cc1ccc(Oc2ccc(Cl)cc2)nc1 [I b] | 100 |
